In paper PMC6225423, “Synthesis, Structural and Thermal Studies of 3-(1-Benzyl-1,2,3,6-tetrahydropyridin-4-yl)-5-ethoxy-1H-indole (D2AAK1_3) as Dopamine D2 Receptor Ligand” (Molecules : A Journal of Synthetic Chemistry and Natural …, 2018):

Target: T1, human dopamine D2 receptor (Homo sapiens, UniProt P14416)
T1 construct: gene DRD2; cloned human D2S receptor
Assay: [3H]spiperone competition radioligand binding, membranes of CHO-K1 cells stably expressing human D2S

T1 sequence (P14416 1-414 isoform P14416-2): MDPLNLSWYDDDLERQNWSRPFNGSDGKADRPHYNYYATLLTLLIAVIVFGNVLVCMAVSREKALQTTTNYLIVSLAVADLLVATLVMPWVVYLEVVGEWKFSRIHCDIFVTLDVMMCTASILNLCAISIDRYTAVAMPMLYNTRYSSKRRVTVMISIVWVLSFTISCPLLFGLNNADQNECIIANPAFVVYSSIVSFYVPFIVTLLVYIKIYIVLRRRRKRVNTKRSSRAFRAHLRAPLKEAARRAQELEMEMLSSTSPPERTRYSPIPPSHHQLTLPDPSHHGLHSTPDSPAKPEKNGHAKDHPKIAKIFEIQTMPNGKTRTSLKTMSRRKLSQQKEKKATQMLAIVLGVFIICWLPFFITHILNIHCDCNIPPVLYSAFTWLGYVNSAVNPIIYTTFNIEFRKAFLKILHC

Q: Which Ki does the source give for CCOc1ccc2[nH]cc(C3=CCN(Cc4ccccc4)CC3)c2c1 [D2AAK1_3, 3-(1-Benzyl-1,2,3,6-tetrahydropyridin-4-yl)-5-ethoxy-1H-indole] here?
A: Its Ki is 151 nM.
